Source: ChEMBL document CHEMBL1201862, “PubChem BioAssay data set” (2004)
Several values for one entry are separate records, joined by “and”; a condition that tells them apart may be missing. Equal values may be shown once.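 1) Cells in 96-well plates. 2) Compound, 48 h, 5 concentrations. 3) Linear interpolation between surrounding doses. 4) Unreached endpoint = highest concentration. GI50 is the concentration that inhibits growth by half.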 Activity calls are given as the source filed them. Cut-off read from the data, not from the text of the source: active = GI50 up to about 1.1 µM and inactive = higher.

Legend:
Assay in all cases: NCI tumour cell line growth inhibition, 48 h
Malme-3M = system: Malme-3M
CAKI-1 = system: CAKI-1
KM12 = system: KM12
MOLT-4 = system: MOLT-4
BT-549 = system: BT-549
SF-268 = system: SF-268
HCT-116 = system: HCT-116
NCI/ADR-RES = system: NCI/ADR-RES
OVCAR-5 = system: OVCAR-5
T47D = system: T47D
SF-539 = system: SF-539
DU-145 = system: DU-145
RPMI-8226 = system: RPMI-8226
OVCAR-3 = system: OVCAR-3
SNB-19 = system: SNB-19
SW-620 = system: SW-620
SR = system: SR
SK-MEL-5 = system: SK-MEL-5
HL-60 = system: HL-60
Hs-578T = system: Hs-578T

Measured: GI50

Cc1cccc(N/C(Sc2ccccc2)=C(/C(Cl)=C(Cl)Cl)[N+](=O)[O-])c1
inactive: Malme-3M 16.5 µM | CAKI-1 19.9 µM | KM12 23.1 µM | MOLT-4 21.5 µM | BT-549 20.4 µM | SF-268 17.8 µM | HCT-116 15.3 µM | NCI/ADR-RES 15.8 µM | OVCAR-5 15.1 µM | T47D 18 µM | SF-539 16.4 µM | DU-145 20.5 µM | RPMI-8226 30.4 µM | OVCAR-3 10 µM | SNB-19 28.7 µM | SW-620 17.4 µM

CC(=O)OC1COC(n2c(N)c(C#N)c(C)c(C#N)c2=S)C(OC(C)=O)C1OC(C)=O (configuration not stated)
inactive: Malme-3M > 100 µM | CAKI-1 > 100 µM | KM12 > 100 µM | BT-549 > 100 µM | SF-268 > 100 µM and 85.5 µM | SR > 100 µM and 54.1 µM | NCI/ADR-RES > 100 µM | OVCAR-5 > 100 µM | T47D 55.3 µM and 58.3 µM | SF-539 > 100 µM | SK-MEL-5 > 100 µM | RPMI-8226 > 100 µM | OVCAR-3 > 100 µM | SW-620 > 100 µM

FC1CCN(C2(c3cccs3)CCCCC2)CC1
inactive: Malme-3M 25.5 µM | CAKI-1 > 100 µM | KM12 > 100 µM | MOLT-4 > 100 µM | BT-549 > 100 µM | HL-60 > 100 µM | HCT-116 > 100 µM | NCI/ADR-RES > 100 µM | OVCAR-5 > 100 µM | T47D > 100 µM | DU-145 > 100 µM | SK-MEL-5 > 100 µM | RPMI-8226 56.5 µM | OVCAR-3 > 100 µM | SNB-19 > 100 µM | SW-620 > 100 µM

NC1CC(=O)c2cscc21 (configuration not stated)
inactive: CAKI-1 15.9 µM | KM12 18.4 µM | MOLT-4 20.6 µM | BT-549 58.9 µM | HL-60 13.6 µM | HCT-116 67.5 µM | NCI/ADR-RES > 100 µM | OVCAR-5 > 100 µM | T47D 19.6 µM | SF-539 37 µM | DU-145 91.4 µM | SK-MEL-5 > 100 µM | RPMI-8226 4.46 µM | OVCAR-3 17.5 µM | SNB-19 53.3 µM | SW-620 17.6 µM

CC(C)CC(NC(=O)C(CCI)Cc1ccccc1)C(=O)Nc1ccccc1 (configuration not stated)
inactive: Malme-3M > 100 µM | CAKI-1 > 100 µM | KM12 37.5 µM | MOLT-4 26.7 µM | BT-549 10.8 µM | HL-60 18 µM | HCT-116 43.4 µM | SR 22.8 µM | NCI/ADR-RES 19 µM | OVCAR-5 > 100 µM | SF-539 > 100 µM | DU-145 > 100 µM | SK-MEL-5 55.3 µM | RPMI-8226 36.9 µM | OVCAR-3 > 100 µM | SNB-19 98.2 µM | SW-620 49.8 µM

Cc1ccc2c(c1)CC1(C2)Cc2ccc(C)cc2C1=O (configuration not stated)
inactive: Malme-3M 12.5 µM | CAKI-1 18.5 µM | KM12 23.5 µM | MOLT-4 14.9 µM | Hs-578T 20.7 µM | SF-268 32 µM | HL-60 19 µM | HCT-116 21.2 µM | SR 12.6 µM | NCI/ADR-RES 15.9 µM | OVCAR-5 43.9 µM | T47D 59.6 µM | SF-539 26.2 µM | DU-145 31.9 µM | SK-MEL-5 13 µM | RPMI-8226 22.3 µM | OVCAR-3 23.9 µM | SNB-19 61.4 µM | SW-620 30.6 µM

N#CC(O)CCOCc1ccccc1 (configuration not stated)
inactive: Malme-3M > 10 µM | CAKI-1 17.7 µM | KM12 > 100 µM | MOLT-4 3.39 µM | BT-549 > 100 µM | SF-268 5.56 µM | HL-60 34.4 µM | HCT-116 66.5 µM | SR > 100 µM | NCI/ADR-RES > 100 µM | OVCAR-5 > 100 µM | T47D > 100 µM | SF-539 85.3 µM | DU-145 > 100 µM | SK-MEL-5 > 100 µM | RPMI-8226 41.7 µM | OVCAR-3 > 100 µM | SNB-19 > 100 µM | SW-620 45.4 µM

O=C(O)C(Br)C(Br)C(=O)O (configuration not stated)
inactive: Malme-3M > 100 µM | CAKI-1 > 100 µM | KM12 > 100 µM | BT-549 > 100 µM | Hs-578T > 100 µM | SF-268 > 100 µM | HL-60 > 100 µM | HCT-116 > 100 µM | SR 28.2 µM | NCI/ADR-RES > 100 µM | OVCAR-5 > 100 µM | SF-539 > 100 µM | DU-145 > 100 µM | SK-MEL-5 > 100 µM | RPMI-8226 > 100 µM | OVCAR-3 > 100 µM | SNB-19 > 100 µM | SW-620 > 100 µM

O=C1c2n[nH]nc2C(=O)c2n[nH]nc21
inactive: CAKI-1 > 100 µM | KM12 > 100 µM | MOLT-4 > 100 µM | Hs-578T > 100 µM | SF-268 > 100 µM | HL-60 > 100 µM | HCT-116 > 100 µM | SR > 100 µM | NCI/ADR-RES > 100 µM | OVCAR-5 > 100 µM | T47D > 100 µM | SF-539 > 100 µM | DU-145 > 100 µM | SK-MEL-5 > 100 µM | RPMI-8226 > 100 µM | OVCAR-3 > 100 µM | SNB-19 > 100 µM | SW-620 > 100 µM

C=C(Cl)C(=C)CCC(Cl)C(C)C (configuration not stated)
inactive: Malme-3M > 100 µM | CAKI-1 > 100 µM | KM12 > 100 µM | MOLT-4 > 100 µM | BT-549 > 100 µM | Hs-578T > 100 µM | SF-268 > 100 µM | HL-60 > 100 µM | HCT-116 > 100 µM | SR > 100 µM | NCI/ADR-RES > 100 µM | OVCAR-5 > 100 µM | SF-539 > 100 µM | DU-145 > 100 µM | SK-MEL-5 > 100 µM | RPMI-8226 > 100 µM | OVCAR-3 > 100 µM | SNB-19 > 100 µM | SW-620 > 100 µM

Nc1c(C(=O)c2ccc(Cl)cc2)[nH]c(Nc2ccc(Cl)cc2)c1C(=S)Nc1ccccc1
inactive: Malme-3M 8.34 µM | CAKI-1 6.05 µM | KM12 7.6 µM | MOLT-4 9.44 µM | BT-549 2.93 µM | SF-268 4.22 µM | HL-60 49.5 µM | HCT-116 3.7 µM | SR 1.92 µM | NCI/ADR-RES 2.53 µM | OVCAR-5 11.8 µM | T47D 4.11 µM | SF-539 5.41 µM | DU-145 5.41 µM | RPMI-8226 14.5 µM | OVCAR-3 3.19 µM | SNB-19 4.36 µM | SW-620 6.43 µM

O=C(O)C1CC2C3CCC2C1C3=O (configuration not stated)
inactive: Malme-3M > 100 µM | CAKI-1 > 100 µM | KM12 > 100 µM | MOLT-4 > 100 µM | Hs-578T > 100 µM | SF-268 > 100 µM | HL-60 > 100 µM | HCT-116 > 100 µM | SR > 100 µM | NCI/ADR-RES > 100 µM | OVCAR-5 > 100 µM | T47D > 100 µM | SF-539 > 100 µM | DU-145 > 100 µM | SK-MEL-5 > 100 µM | OVCAR-3 > 100 µM | SNB-19 > 100 µM | SW-620 > 100 µM

FC(F)(F)C1(C(F)(F)F)C2CCC3(CC(F)(F)C(F)(F)S3)C1C2 (configuration not stated)
inactive: Malme-3M 34 µM | CAKI-1 98.2 µM | KM12 76.6 µM | MOLT-4 23.4 µM | Hs-578T > 100 µM | SF-268 44.6 µM | HL-60 27.9 µM | HCT-116 20.2 µM | SR 21.3 µM | NCI/ADR-RES > 100 µM | OVCAR-5 48.6 µM | T47D > 100 µM | SF-539 > 100 µM | DU-145 73.6 µM | SK-MEL-5 44.3 µM | RPMI-8226 28.2 µM | OVCAR-3 19.6 µM | SNB-19 > 100 µM | SW-620 > 100 µM

O=C1O/C(=C(/Cl)c2cccc3ccccc23)c2ccccc21
inactive: Malme-3M > 100 µM | CAKI-1 > 100 µM | KM12 7.62 µM | MOLT-4 > 100 µM | BT-549 > 100 µM | Hs-578T 32.4 µM | SF-268 81.1 µM | HL-60 > 100 µM | HCT-116 > 100 µM | SR > 100 µM | OVCAR-5 > 100 µM | SF-539 > 100 µM | DU-145 > 100 µM | SK-MEL-5 > 100 µM | RPMI-8226 > 100 µM | OVCAR-3 > 100 µM | SNB-19 > 100 µM | SW-620 > 100 µM

C/N=C(\Nc1cccc(C(F)(F)F)c1)SCc1ccc(N=C=S)cc1
inactive: Malme-3M 14.7 µM | CAKI-1 16.5 µM | KM12 15.4 µM | MOLT-4 11.5 µM | Hs-578T 14.7 µM | SF-268 31.2 µM | HL-60 40.6 µM | HCT-116 15.5 µM | SR 4.34 µM | NCI/ADR-RES 22.1 µM | OVCAR-5 16.5 µM | T47D 13.8 µM | SF-539 17.5 µM | DU-145 17.4 µM | SK-MEL-5 16.3 µM | RPMI-8226 5.92 µM | SNB-19 14.9 µM | SW-620 20.2 µM

COC(=O)[C@]12CC[C@H]3CN(C(=O)OCc4ccccc4)[C@H]([C@H]31)[C@H](c1ccco1)N2
inactive: Malme-3M 23.3 µM | CAKI-1 35.8 µM | KM12 26.4 µM | MOLT-4 19.8 µM | Hs-578T 42.4 µM | SF-268 57 µM | HL-60 28.8 µM | HCT-116 40.8 µM | SR 44.9 µM | NCI/ADR-RES 18.1 µM | OVCAR-5 > 100 µM | T47D 42.1 µM | SF-539 > 100 µM | DU-145 > 100 µM | SK-MEL-5 17 µM | RPMI-8226 27.4 µM | OVCAR-3 51.6 µM | SNB-19 > 100 µM | SW-620 > 100 µM
